This is an account of results in patent publication US12186283B2, “Bismuth-thiol compositions and methods of use” (Microbion Corporation, priority 2018, dated 2025).

≈ marks a conversion by molar mass, not a printed value. Like-named read-outs stand apart in the source and are kept apart here. *1 amine or outer side, *2 acyl side, *3 side chain or, on linkers, in order; H or OH if unused. Where a SMILES comes first, the peptide text is derived from it. Bridges are numbered along the chain shown (N, C = ends). [ ]: non-standard residue; d: D form. The star is where a group is joined. hTyr(3S-OH,4S-OH,3'-OSO3H) = N[C@H](C(=O)O)[C@H](O)[C@@H](O)c1ccc(O)c(OS(=O)(=O)O)c1; Orn(4R-OH,5R-OH) = O=C([C@H](C[C@@H](O)[C@@H](O)N[*:3])N[*:1])[*:2]; Pro(3S-OH,4S-Me) = C[C@H]1CN[C@H](C(=O)O)[C@H]1O; X1 = CCCCCOc1ccc(-c2cc(-c3ccc(C(=O)*)cc3)no2)cc1; Gln(3R-OH) = NC(=O)C[C@@H](O)[C@H](N)C(=O)O; Hyp = O=C(O)[C@@H]1C[C@@H](O)CN1

For test [1], the system named is Candida spp. Put plainly: Broth microdilution MIC, yeast (Example 13), group statement and QC. The note with it: C. parapsilosis ATCC 22019, comparators, single value. It is filed as cell-based. On the technique in general: In broth dilution the organism is exposed to a series of concentrations in liquid medium.
Test [2] relates to Candida krusei. Put plainly: Broth microdilution MIC, yeast (Example 13). It is filed as cell-based. The note with it: C. krusei ATCC 6258 (QC, Table 110), comparators, single value.
The next test concerns Aspergillus spp. Put plainly: Broth microdilution MIC/MEC, mold (Example 13). The class given is cell-based. The note with it: MEC.
The subject of the next test is E. coli ATCC 25922. Put plainly: Broth microdilution MIC, QC organism (Example 13, Table 110). The class given is cell-based, Escherichia coli. The text has this: (§1) MECs were only reported where observed.
The subject of test [3] is S. aureus ATCC 29213. The description is as above. The class given is cell-based, Staphylococcus aureus.
Description: as §1

Test [4] deals with Candida spp. To be noted: C. parapsilosis ATCC 22019, CLSI established QC range, cited from earlier work.
The subject of test [5] is Candida krusei. To be noted: C. krusei ATCC 6258, CLSI established QC range, cited from earlier work.
In test [6] the test system is S. aureus ATCC 29213. To be noted: control strain ATCC 29213 S. aureus; per CLSI M100-S24 or provided by Microbion; cited from earlier work.
The test system of test [7] is P. aeruginosa. Put plainly: Checkerboard FIC assay, BisEDT with CF agents (Example 10). It is filed as cell-based, Pseudomonas aeruginosa. The note with it: agent alone, as observed during FIC testing.
Test [8] deals with Burkholderia cepacia complex. Described as above. It is filed as cell-based, Burkholderia spp. To be noted: agent alone, as observed during FIC testing.
The subject of test [9] is P. aeruginosa. To be noted: P. aeruginosa isolate 103, CLSI QC range in parenthesis, cited from earlier work.
Test [10] concerns P. aeruginosa. Put plainly: Broth microdilution MIC (Example 10).
Test [11] concerns Burkholderia cepacia complex. Put plainly: Broth microdilution MIC (Example 10). To be noted: initial MIC testing.
[12] abbreviates: A. flavus ATCC 204304 (QC, Table 110).
[13] abbreviates: A. fumigatus ATCC MYA-3626 (QC, Table 110).

In the case of `CC[C@H](C)C[C@H](C)CCCCCCCCC(=O)N[C@H]1C[C@@H](O)[C@@H](NCCN)NC(=O)[C@@H]2[C@@H](O)CCN2C(=O)[C@H]([C@H](O)CCN)NC(=O)[C@H]([C@H](O)[C@@H](O)c2ccc(O)cc2)NC(=O)[C@@H]2C[C@@H](O)CN2C(=O)[C@H]([C@@H](C)O)NC1=O` [Caspofungin], the MIC 24 hr against Candida spp. [1] was 0.25 µg/mL (≈ 0.229 µM); against Candida krusei [2], 0.25 µg/mL (≈ 0.229 µM); against E. coli ATCC 25922 it was greater than 64 µg/mL; in the test on S. aureus ATCC 29213 [3], greater than 64 µg/mL. The values for the MIC 48 hr against Candida spp. [1] and against Candida krusei [2] were 0.5 µg/mL (≈ 0.457 µM) and 0.25 µg/mL (≈ 0.229 µM), respectively. In addition, the “MIC 24 hr (MEC)” value against Aspergillus spp. (setting [12]) is on record as 0.12. Besides, the “QC Range 24 hr” value with Candida spp. [4] is 0.25-1; in the test on Candida krusei [5] it was 0.12-1. The “QC Range 48 hr” value with Candida spp. [4] is recorded as 0.5-4; in the test on Candida krusei [5], 0.25-2.

Consider `CC[C@H]1OC(=O)[C@H](C)[C@@H](O[C@H]2C[C@@](C)(OC)[C@@H](O)[C@H](C)O2)[C@H](C)[C@@H](O[C@@H]2O[C@H](C)C[C@H](N(C)C)[C@H]2O)[C@](C)(OC)C[C@@H](C)C(=O)[C@H](C)[C@@H](O)[C@]1(C)O` [Clarithromycin], for which, in the test with S. aureus ATCC 29213 [6], the “Expected MIC: acceptable range” value is 0.12 to 0.5 µg/mL and the “Expected MIC: goal” value is 0.25 µg/mL.

With `CCCCCOc1ccc(-c2cc(-c3ccc(C(=O)N[C@H]4C[C@@H](O)[C@@H](O)NC(=O)[C@@H]5[C@@H](O)[C@@H](C)CN5C(=O)[C@H]([C@H](O)CC(N)=O)NC(=O)[C@H]([C@H](O)[C@@H](O)c5ccc(O)c(OS(=O)(=O)O)c5)NC(=O)[C@@H]5C[C@@H](O)CN5C(=O)[C@H]([C@@H](C)O)NC4=O)cc3)no2)cc1` [Micafungin] (X1-[Orn(4R-OH,5R-OH)]T[Hyp][hTyr(3S-OH,4S-OH,3'-OSO3H)][Gln(3R-OH)][Pro(3S-OH,4S-Me)]; lactam 1-C), the MIC 24 hr is 0.5 µg/mL (≈ 0.394 µM) against Candida spp. [1], 0.5 µg/mL (≈ 0.394 µM) in the test with Candida krusei [2], greater than 64 µg/mL against E. coli ATCC 25922 and greater than 64 µg/mL against S. aureus ATCC 29213 [3]. Moreover, the results for the MIC 48 hr against Candida spp. [1] and with Candida krusei [2] were 2 µg/mL (≈ 1.57 µM) and 0.5 µg/mL (≈ 0.394 µM), respectively. Besides, the figures for the “MIC 24 hr (MEC)” value in the test with Aspergillus spp. (setting [12]) and against Aspergillus spp. (setting [13]) were 0.06 and 0.03, respectively. Also, the “MIC 48 hr (MEC)” value in the test on Aspergillus spp. (setting [12]) and against Aspergillus spp. (setting [13]) was 0.008 throughout. Besides, the “QC Range 24 hr” value in the test on Candida spp. [4] is recorded as 0.5-2; with Candida krusei [5], 0.12-0.5. The “QC Range 48 hr” value in the test on Candida spp. [4] was 0.5-4; in the test on Candida krusei [5], 0.12-0.5.

A word on the MIC: it is the least concentration at which growth counts as inhibited. For the compound `NC[C@H]1O[C@H](O[C@H]2[C@H](O)[C@@H](O[C@H]3O[C@H](CO)[C@@H](O)[C@H](N)[C@H]3O)[C@H](N)C[C@@H]2N)[C@H](N)C[C@@H]1O` [TOB], the MIC in the test with P. aeruginosa [7] (P. aeruginosa isolate 6322) was determined as 128 µg/mL; with P. aeruginosa [7] (P. aeruginosa isolate 6977), 128 µg/mL; with P. aeruginosa [7] (P. aeruginosa isolate 7745) it was 0.5 µg/mL; with P. aeruginosa [7] (P. aeruginosa isolate 8798) it was 16 µg/mL; with P. aeruginosa [7] (P. aeruginosa isolate 9108), 0.5 µg/mL; in test [8] (B. cenocepacia isolate 0548) it was 32 µg/mL. Moreover, the MIC turned out to be 256 µg/mL in test [8] (B. cenocepacia isolate 0813); 16 µg/mL in [8] (B. cepacia isolate 1793); 1 µg/mL (≈ 2.14 µM) against P. aeruginosa [10] (P. aeruginosa isolate 103 (ATCC 25922), QC strain, initial MIC testing); 1 µg/mL with P. aeruginosa [10] (P. aeruginosa isolate 103 (ATCC 25922), during FIC testing, each agent tested alone for QC, one replicate); 16 µg/mL (≈ 34.2 µM) against P. aeruginosa [10] (P. aeruginosa isolate 1497 (TOB-R, AMK-R, CIP-I, AZT-R, COL-R), initial MIC testing); 32 µg/mL (≈ 68.4 µM) against P. aeruginosa [10] (P. aeruginosa isolate 1530 (TOB-R, AMK-R, CIP-R), initial MIC testing). Also, the minimum inhibitory concentration (MIC) is greater than 256 µg/mL with P. aeruginosa [10] (P. aeruginosa isolate 1553 (TOB-R, AMK-R, CIP-R), initial MIC testing); 128 µg/mL (≈ 274 µM) in the test with P. aeruginosa [10] (P. aeruginosa isolate 6322 (MEM-R, TOB-R, AMK-R, CIP-R, AZT-R), initial MIC testing); 128 µg/mL (≈ 274 µM) in the test with P. aeruginosa [10] (P. aeruginosa isolate 6977 (MEM-I, TOB-R, CIP-R, AZT-I), initial MIC testing); 0.5 µg/mL (≈ 1.07 µM) against P. aeruginosa [10] (P. aeruginosa isolate 7745 (MEM-R, CIP-R, AZT-R), initial MIC testing); 32 µg/mL (≈ 68.4 µM) in the test on P. aeruginosa [10] (P. aeruginosa isolate 7754 (MEM-R, TOB-R, CIP-R, AZT-I), initial MIC testing); 1 µg/mL (≈ 2.14 µM) in the test on P. aeruginosa [10] (P. aeruginosa isolate 7762 (MEM-I, CIP-I), initial MIC testing). For the same compound, the MIC against P. aeruginosa [10] (P. aeruginosa isolate 7871 (MEM-R, AZT-I), initial MIC testing) is 0.5 µg/mL (≈ 1.07 µM); in the test on P. aeruginosa [10] (P. aeruginosa isolate 7874, initial MIC testing) it was 0.5 µg/mL (≈ 1.07 µM); with P. aeruginosa [10] (P. aeruginosa isolate 7886 (MEM-R, CIP-R, AZT-R), initial MIC testing), 1 µg/mL (≈ 2.14 µM); against P. aeruginosa [10] (P. aeruginosa isolate 8797 (MEM-R, TOB-R, AMK-R, CIP-R, AZT-R, COL-R), initial MIC testing), greater than 256 µg/mL; in the test with P. aeruginosa [10] (P. aeruginosa isolate 8798 (MEM-R, TOB-R, AMK-R, CIP-R, AZT-R, COL-R), initial MIC testing), 32 µg/mL (≈ 68.4 µM); against P. aeruginosa [10] (P. aeruginosa isolate 9108 (CIP-R, AZT-I), initial MIC testing) it was 0.5 µg/mL (≈ 1.07 µM). For the same compound, the MIC in [11] (B. cenocepacia isolate 0548 (CIP-R)) came to 64 µg/mL (≈ 137 µM); in test [11] (B. cenocepacia isolate 0813 (CPI-I)) it was 256 µg/mL (≈ 548 µM); in test [11] (B. cepacia isolate 0546) it was 64 µg/mL (≈ 137 µM); in test [11] (B. cepacia isolate 1793) it was 64 µg/mL (≈ 137 µM); in [11] (B. cepacia isolate 9040), 8 µg/mL (≈ 17.1 µM); in [11] (B. multivorans isolate 1791), 64 µg/mL (≈ 137 µM). The MIC in test [11] (B. multivorans isolate 5665 (CIP-I)) was determined as 64 µg/mL (≈ 137 µM); in test [11] (B. multivorans isolate 8952 (CIP-I)) it was 16 µg/mL (≈ 34.2 µM). Further, the “MIC, CLSI QC range” value in the test on P. aeruginosa [9] (Table 24) and in the test with P. aeruginosa [9] (Table 26) was “(0.25-1) μg/mL” in each case.
